Data from patent US8293682B2, “Growth regulators for gramineous weeds” (Rikengreen Co., Ltd., priority 2008, dated 2012).

Tests used:
[1] = test system: annual bluegrass (Poa annua L.); assay: Test Example 1: number of ear emergence, poly-cup, single or mixed application; assay type: in vivo
Method: At the initial stage of the ear emergence of annual bluegrass (Poa annua L.) grown in a poly-cup of 11 cm×11 cm, benzyladenine (Beanine for painting; made by Rikengreen; containing 1% benzyladenine) and ethephon (Ethrel 10 soluble concentrate; Nissan Chemical Industries; containing 10% ethephon) respectively as a single active ingredient or a mixture of them were diluted in a predetermined amount of water and applied by atomization so as to be a dose as indicated in Table. The application was carried out using 100 mL/m^2 of the solution to which a spreader (Riken Sprayzer (registered trade mark); made by Rikengreen) was added so as to be 1/1,000 fold. Inspection was made on Days 21, 32 and 45 after treatment with the agents to count the number of ear emergence in the cup. After completion of each inspection, clipping was performed.

[2] = test system: annual bluegrass (Poa annua L.); assay: Test Example 3: number of emerged ears and leaves, poly-cup, two applications; assay type: in vivo; settings: for Ear (number of emerged ears in the cup) / [Leaf] (number of leaves within 6 cm×6 cm): 2nd application after 29 days
Method: At the initial stage of the ear emergence of annual bluegrass (Poa annua L.) grown in a poly-cup of 11 cm×11 cm, benzyladenine (Beanine for painting; made by Rikengreen; containing 1% benzyladenine) and ethephon (Ethrel 10 soluble concentrate; Nissan Chemical Industries; containing 10% ethephon) were diluted in a predetermined amount of water, and a spreader (Riken Sprayzer (registered trade mark); made by Rikengreen) was added so as to be 1/1,000-fold concentration; the respectively diluted solutions were applied by atomization at a dose as indicated in Table (scattered solution: 200 mL/m^2), and after a lapse of 29 days, the 2nd application was carried out. Then, the number of emerged ears of annual bluegrass (Poa annua L.) in the cup was counted. Further, the number of leaves [Leaf] of annual bluegrass (Poa annua L.) was counted within the area of 6 cm×6 cm in the cup. The test was carried out serially. […] Dose means the amount at a single application.

[3] = test system: annual bluegrass (Poa annua L.); assay: Test Example 4: field test in bent green turf, emerged ear number; assay type: in vivo; settings: applied Day 0 and after 30 days
Method: In a bent green turf where annual bluegrasses (Poa annua L.) were grown, a test zone of 1 m×1 m was provided. Benzyladenine (Beanine for painting; made by Rikengreen; containing 1% benzyladenine) and ethephon (Ethrel 10 soluble concentrate; Nissan Chemical Industries; containing 10% ethephon) were diluted in a predetermined amount of water, and a spreader (Riken Sprayzer (registered trade mark); made by Rikengreen) was added so as to be 1/1,000-fold concentration. The respectively diluted solutions were applied to each test zone at the first application (Day 0) at a dose as indicated in Table, and after a lapse of 30 days the second application was carried out. The amount of solution scattered was 100 mL/m^2 both in the first and second applications. The number of ear emergence of annual bluegrass (Poa annua L.) within the area of 10×10 cm was counted at regular intervals at 3 spots per zone. […] Dose means the amount at a single application.

[4] = test system: southern crabgrasses (Digitaria ciliaris Koel.); assay: Test Example 5: field test in Manilagrass turf, inhibitory effect for ear emergence; assay type: in vivo
Method: In a Manilagrass (Zoysia matrella) turf where southern crabgrasses (Digitaria ciliaris Koel.) were grown, a test zone of 1 m×1 m was provided. Benzyladenine (Beanine for painting; made by Rikengreen; containing 1% benzyladenine) and ethephon (Ethrel 10 soluble concentrate; Nissan Chemical Industries; containing 10% ethephon) were diluted in a predetermined amount of water. The respectively diluted solutions were applied to each test zone at the first application (Day 0) at a dose as indicated in Table, and after a lapse of 17 days the second application was carried out. The first application was conducted before the ear emergence of southern crabgrasses (Digitaria ciliaris Koel.). The amount of solution scattered was 150 mL/m^2 both in the first and second applications. The inhibitory effect for the ear emergence of southern crabgrasses (Digitaria ciliaris Koel.) within the area of 1 m×1 m was evaluated according to the standard as described in Table 7. […] The symbol “●” in Table 8 indicates the treatment with each agent, and “−” means untreated. Dose means the amount at a single application.

lawn grasses = settings: cited from earlier work
[5] = Day 46, Benzyladenine + Ethephon 2 + 0 mg a.i./m^2
[6] = Day 46, Benzyladenine + Ethephon 4 + 0 mg a.i./m^2

For `c1ccc(CNc2ncnc3nc[nH]c23)cc1` [Benzyladenine, 6-benzylaminopurine], the “number of ear emergence in the cup” value ([1]; 21 Days after Application, Benzyladenine 2, Ethephon 0 mg a.i./m^2) was 39, the “number of ear emergence in the cup” value ([1]; 21 Days after Application, Benzyladenine 4, Ethephon 0 mg a.i./m^2) was 26 and the “number of ear emergence in the cup” value ([1]; 21 Days after Application, Benzyladenine 8, Ethephon 0 mg a.i./m^2) was 36. For the same molecule, the “number of ear emergence in the cup” value ([1]; 21 Days after Application, Benzyladenine 12, Ethephon 0 mg a.i./m^2) was 16, the “number of ear emergence in the cup” value ([1]; 21 Days after Application, Benzyladenine 16, Ethephon 0 mg a.i./m^2) was 11 and the “number of ear emergence in the cup” value ([1]; 32 Days after Application, Benzyladenine 2, Ethephon 0 mg a.i./m^2) was 50. The “number of ear emergence in the cup” value ([1]; 32 Days after Application, Benzyladenine 4, Ethephon 0 mg a.i./m^2) was 34, the “number of ear emergence in the cup” value ([1]; 32 Days after Application, Benzyladenine 8, Ethephon 0 mg a.i./m^2) was 10 and the “number of ear emergence in the cup” value ([1]; 32 Days after Application, Benzyladenine 12, Ethephon 0 mg a.i./m^2) was 9. For the same molecule, the “number of ear emergence in the cup” value ([1]; 32 Days after Application, Benzyladenine 16, Ethephon 0 mg a.i./m^2) was 6, the “number of ear emergence in the cup” value ([1]; 45 Days after Application, Benzyladenine 2, Ethephon 0 mg a.i./m^2) was 71 and the “number of ear emergence in the cup” value ([1]; 45 Days after Application, Benzyladenine 4, Ethephon 0 mg a.i./m^2) was 71. For the same molecule, the “number of ear emergence in the cup” value ([1]; 45 Days after Application, Benzyladenine 8, Ethephon 0 mg a.i./m^2) was 67, the “number of ear emergence in the cup” value ([1]; 45 Days after Application, Benzyladenine 12, Ethephon 0 mg a.i./m^2) was 55 and the “number of ear emergence in the cup” value ([1]; 45 Days after Application, Benzyladenine 16, Ethephon 0 mg a.i./m^2) was 45. The “inhibition of ear emergence (summary in words)” value ([1]; Test Example 1, Tables 1-3) was “effective in inhibiting the ear emergence”, the “Ear (number of emerged ears in the cup)” value ([2]; Day 23, Benzyladenine + Ethephon 2 + 0 mg a.i./m^2) was 12 and the “Ear (number of emerged ears in the cup)” value ([2]; Day 23, Benzyladenine + Ethephon 4 + 0 mg a.i./m^2) was 2. The “Ear (number of emerged ears in the cup)” value [2, 5] was 54, the “[Leaf] (number of leaves within 6 cm×6 cm)” value [2, 5] was “[105]” and the “Ear (number of emerged ears in the cup)” value [2, 6] was 55. For the same molecule, the “[Leaf] (number of leaves within 6 cm×6 cm)” value [2, 6] was “[108]”, the “Ear (number of emerged ears in the cup)” value ([2]; Day 53, Benzyladenine + Ethephon 2 + 0 mg a.i./m^2) was 43 and the “Ear (number of emerged ears in the cup)” value ([2]; Day 53, Benzyladenine + Ethephon 4 + 0 mg a.i./m^2) was 48. For the same molecule, the “inhibition of ear emergence (summary in words)” value ([2]; Test Example 3) was “strongly inhibits the ear emergence”, the “number of leaves (bud number) (summary in words)” value ([2]; Test Example 3) was “increases the number of leaves” and the “Ear (mean emerged ear number within 10×10 cm)” value ([3]; Day 22, Ethephon 0, Benzyladenine 4 mg a.i./m^2) was 62.3. The “Ear (mean emerged ear number within 10×10 cm)” value ([3]; Day 22, Ethephon 0, Benzyladenine 8 mg a.i./m^2) was 34.3, the “Ear (mean emerged ear number within 10×10 cm)” value ([3]; Day 22, Ethephon 0, Benzyladenine 12 mg a.i./m^2) was 27.0 and the “Ear (mean emerged ear number within 10×10 cm)” value ([3]; Day 41, Ethephon 0, Benzyladenine 4 mg a.i./m^2) was 150.3. The “Ear (mean emerged ear number within 10×10 cm)” value ([3]; Day 41, Ethephon 0, Benzyladenine 8 mg a.i./m^2) was 59.7, the “Ear (mean emerged ear number within 10×10 cm)” value ([3]; Day 41, Ethephon 0, Benzyladenine 12 mg a.i./m^2) was 32.7 and the “Ear (mean emerged ear number within 10×10 cm)” value ([3]; Day 61, Ethephon 0, Benzyladenine 4 mg a.i./m^2) was 107.0. The “Ear (mean emerged ear number within 10×10 cm)” value ([3]; Day 61, Ethephon 0, Benzyladenine 8 mg a.i./m^2) was 53.0, the “Ear (mean emerged ear number within 10×10 cm)” value ([3]; Day 61, Ethephon 0, Benzyladenine 12 mg a.i./m^2) was 41.0 and the “Evaluation: index of inhibitory effect for ear emergence” value (“Evaluation: index of inhibitory effect” below) ([4]; Day 18, Benzyladenine 2.5 mg a.i./m^2, applied Day 0) was 0 (0% or more-less than 10%). For the same molecule, the “Evaluation: index of inhibitory effect” value ([4]; Day 18, Benzyladenine 5 mg a.i./m^2, applied Day 0) was 0 (0% or more-less than 10%), the “Evaluation: index of inhibitory effect” value ([4]; Day 18, Benzyladenine 10 mg a.i./m^2, applied Day 0) was 2 (20% or more-less than 30%) and the “Evaluation: index of inhibitory effect” value ([4]; Day 18, Benzyladenine 15 mg a.i./m^2, applied Day 0) was 10 (100%). The “Evaluation: index of inhibitory effect” value ([4]; Day 26, Benzyladenine 2.5 mg a.i./m^2, applied Day 0) was 0 (0% or more-less than 10%), the “Evaluation: index of inhibitory effect” value ([4]; Day 26, Benzyladenine 2.5 mg a.i./m^2, applied Day 0 and Day 17) was 1 (10% or more-less than 20%) and the “Evaluation: index of inhibitory effect” value ([4]; Day 26, Benzyladenine 5 mg a.i./m^2, applied Day 0) was 0 (0% or more-less than 10%). The “Evaluation: index of inhibitory effect” value ([4]; Day 26, Benzyladenine 5 mg a.i./m^2, applied Day 0 and Day 17) was 2 (20% or more-less than 30%), the “Evaluation: index of inhibitory effect” value ([4]; Day 26, Benzyladenine 10 mg a.i./m^2, applied Day 0) was 2 (20% or more-less than 30%) and the “Evaluation: index of inhibitory effect” value ([4]; Day 26, Benzyladenine 10 mg a.i./m^2, applied Day 0 and Day 17) was 6 (60% or more-less than 70%). For the same molecule, the “Evaluation: index of inhibitory effect” value ([4]; Day 26, Benzyladenine 15 mg a.i./m^2, applied Day 0) was 9 (90% or more-less than 100%), the “Evaluation: index of inhibitory effect” value ([4]; Day 26, Benzyladenine 15 mg a.i./m^2, applied Day 0 and Day 17) was 10 (100%) and the “Evaluation: index of inhibitory effect” value ([4]; Day 33, Benzyladenine 2.5 mg a.i./m^2, applied Day 0) was 0 (0% or more-less than 10%). The “Evaluation: index of inhibitory effect” value ([4]; Day 33, Benzyladenine 2.5 mg a.i./m^2, applied Day 0 and Day 17) was 3 (30% or more-less than 40%), the “Evaluation: index of inhibitory effect” value ([4]; Day 33, Benzyladenine 5 mg a.i./m^2, applied Day 0) was 1 (10% or more-less than 20%) and the “Evaluation: index of inhibitory effect” value ([4]; Day 33, Benzyladenine 5 mg a.i./m^2, applied Day 0 and Day 17) was 3 (30% or more-less than 40%). For the same molecule, the “Evaluation: index of inhibitory effect” value ([4]; Day 33, Benzyladenine 10 mg a.i./m^2, applied Day 0) was 5 (50% or more-less than 60%), the “Evaluation: index of inhibitory effect” value ([4]; Day 33, Benzyladenine 10 mg a.i./m^2, applied Day 0 and Day 17) was 7 (70% or more-less than 80%) and the “Evaluation: index of inhibitory effect” value ([4]; Day 33, Benzyladenine 15 mg a.i./m^2, applied Day 0) was 7 (70% or more-less than 80%). The “Evaluation: index of inhibitory effect” value ([4]; Day 33, Benzyladenine 15 mg a.i./m^2, applied Day 0 and Day 17) was 8 (80% or more-less than 90%), the “Evaluation: index of inhibitory effect” value ([4]; Day 41, Benzyladenine 2.5 mg a.i./m^2, applied Day 0) was 0 (0% or more-less than 10%) and the “Evaluation: index of inhibitory effect” value ([4]; Day 41, Benzyladenine 2.5 mg a.i./m^2, applied Day 0 and Day 17) was 1 (10% or more-less than 20%). The “Evaluation: index of inhibitory effect” value ([4]; Day 41, Benzyladenine 5 mg a.i./m^2, applied Day 0) was 2 (20% or more-less than 30%), the “Evaluation: index of inhibitory effect” value ([4]; Day 41, Benzyladenine 5 mg a.i./m^2, applied Day 0 and Day 17) was 5 (50% or more-less than 60%) and the “Evaluation: index of inhibitory effect” value ([4]; Day 41, Benzyladenine 10 mg a.i./m^2, applied Day 0) was 2 (20% or more-less than 30%). For the same molecule, the “Evaluation: index of inhibitory effect” value ([4]; Day 41, Benzyladenine 10 mg a.i./m^2, applied Day 0 and Day 17) was 6 (60% or more-less than 70%), the “Evaluation: index of inhibitory effect” value ([4]; Day 41, Benzyladenine 15 mg a.i./m^2, applied Day 0) was 4 (40% or more-less than 50%) and the “Evaluation: index of inhibitory effect” value ([4]; Day 41, Benzyladenine 15 mg a.i./m^2, applied Day 0 and Day 17) was 8 (80% or more-less than 90%). For the same molecule, the “rooting of lawn grasses” value (lawn grasses; Non-patent document 1) was “effect for accelerating the rooting of lawn grasses” and the “growth of lawn grasses” value (lawn grasses; Patent document 1) was “effect for accelerating the growth of lawn grasses”.
